From ChEMBL document CHEMBL1121563, “8-Hydroxyanthracyclinones from epsilon-rhodomycinone” (1980) come the findings set out here.

Structures are written as SMILES. The source made the active and inactive calls. No cut-off for these calls is given here.

The test system of assay [1] is Escherichia coli. Briefly: Compound is evaluated for lambda-phage induction activity in Escherichia coli (dose at 12.5 ug/mL). Format: functional.
Assay [2] concerns Escherichia coli. Briefly: Compound is evaluated for lambda-phage induction activity in Escherichia coli (dose at 25 ug/mL). Type of assay: functional.
The test system of assay [3] is Escherichia coli. Briefly: Compound is evaluated for lambda-phage induction activity in Escherichia coli (dose at 50 ug/mL). Format: functional.
For assay [4], the system named is Escherichia coli. The assay is described as follows: Compound is evaluated for lambda-phage induction activity in Escherichia coli (dose at 6.2 ug/mL). Format: functional.
The subject of another assay is Bacillus subtilis. The assay is described as follows: Compound was tested for its lambda-phage induction activity against Bacillus subtilis in a disk plate assay at concentration of dose of 0.8 ug/mL; Active. Format: functional, organism-based.
For assay [5], the system named is Escherichia coli. Briefly: Compound is evaluated for lambda-phage induction activity in Escherichia coli (dose at 0.8 ug/mL). Type of assay: functional.
Assay [6] deals with Escherichia coli. Briefly: Compound is evaluated for lambda-phage induction activity in Escherichia coli (dose at 1.6 ug/mL). Format: functional.
Assay [7] relates to Escherichia coli. The assay is described as follows: Compound is evaluated for lambda-phage induction activity in Escherichia coli (dose at 3.1 ug/mL). Format: functional.
Assay [8] concerns Escherichia coli. Briefly: Compound is evaluated for lambda-phage induction activity in Escherichia coli (dose at 50 ug/mL); Toxic to culture. Format: functional.
In assay [9] the test system is Escherichia coli. The assay is described as follows: Compound is evaluated for lambda-phage induction activity in Escherichia coli (dose at 6.2 ug/mL); Toxic to culture. Format: functional.

In the case of `CCC1=CCc2c(O)c3c(c(O)c2[C@H]1C(=O)OC)C(=O)c1cccc(O)c1C3=O`, the Activity with Escherichia coli [1] is 6; in the assay with Escherichia coli [2], 9.3; in the assay on Escherichia coli [3], 13.4; in the assay on Escherichia coli [4], 2.8.
`CC(=O)[C@]1(O)Cc2c(O)c3c(c(O)c2[C@@H](O[C@H]2C[C@H](N)[C@H](O)[C@H](C)O2)C1)C(=O)c1c(O)cccc1C3=O` [CARUBICIN]: the outcome with Bacillus subtilis was Active. Further, the Activity in the assay with Escherichia coli [5] turned out to be 2.2; in the assay with Escherichia coli [6], 3; in the assay with Escherichia coli [7], 6.2; with Escherichia coli [4], 7.
Turning to `CC[C@]12O[C@H]1Cc1c(O)c3c(c(O)c1[C@H]2C(=O)OC)C(=O)c1cccc(O)c1C3=O`, the Activity in the assay with Escherichia coli [1] is 1.5; in the assay with Escherichia coli [2], 1.9; with Escherichia coli [7], 1.2; in the assay with Escherichia coli [3] it was 2.9; in the assay on Escherichia coli [4], 1.3.
`CC[C@@]1(O)C[C@H](O)c2c(O)c3c(c(O)c2[C@H]1C(=O)OC)C(=O)c1cccc(O)c1C3=O`: the values for the Activity with Escherichia coli [1], in the assay on Escherichia coli [2] and in the assay with Escherichia coli [8] were 1.5, 1.8 and 2.9, respectively.
Take `CC[C@H]1CCc2c(O)c3c(c(O)c2[C@H]1C(=O)OC)C(=O)c1cccc(O)c1C3=O`: the Activity in the assay on Escherichia coli [1] was found to be 1.2; with Escherichia coli [2] it was 1.8; in the assay with Escherichia coli [7], 1; with Escherichia coli [3], 2.4; with Escherichia coli [4] it was 1.3.
Regarding `CC[C@@]12O[C@@H]1Cc1c(O)c3c(c(O)c1[C@H]2C(=O)OC)C(=O)c1cccc(O)c1C3=O`, the Activity turned out to be 1.1 in the assay with Escherichia coli [1]; 2 with Escherichia coli [2]; 1.2 with Escherichia coli [7]; 3 in the assay with Escherichia coli [3]; 1.4 in the assay with Escherichia coli [4].
Regarding `COc1cccc2c1C(=O)c1c(O)c3c(c(O)c1C2=O)C[C@@](O)(C(C)=O)C[C@@H]3O[C@H]1C[C@H](N)[C@H](O)[C@H](C)O1` [DAUNORUBICIN], the result in the assay on Bacillus subtilis was Active. The Activity with Escherichia coli [5] worked out at 3.1; with Escherichia coli [6] it was 5.3; in the assay with Escherichia coli [7], 11.9; in the assay on Escherichia coli [9] it was 11.1.
